Measured values reported in US20240190855A1 (Relay Therapeutics, Inc., priority 2021, published 2024).

These compounds were tested against target tagged with nanoLuciferase in 293-NB2 cells (Homo sapiens, UniProt P24941) (assay: nanoBRET TE Intracellular Kinase Assay (Cell nanoBRET Assay)). Details: not given.
Assay type: cell-based
Method: Compounds described herein were also tested in a nanoBRET TE Intracellular Kinase Assay. Test compounds were prepared in a DMSO stock solution. 45 uL of stock solution was transferred to a 384 well plate (Greiner, 781201), and a 3-fold 11-point dilution was performed. 293-NB2 cells expressing target tagged with nanoLuciferase were diluted in cell growth media (DMEM+10% FBS+1% Pen/Strep media) and a 40 uL cell solution of 7.5E4 cells/mL was seeded in a separate 384 well cell culture plate and incubated overnight at 37° C./5% CO2/100% humidity. […] 80 nL of each concentration of compound was transferred from the compound plate to a corresponding well in the cell culture plate by Echo550 liquid handler. The plates were incubated for 2 hrs at 37° C./5% CO2/100% humidity. […] Chemiluminescence was then read on an EnVision reader (PerkinElmer).

SMILES | IC50 [µM]
Cc1cc(CC(=O)Nc2cc([C@H]3CC[C@@H](OC(N)=O)C3)[nH]n2)on1 (racemic) [Example 4] | 1 to 100

These compounds were tested on CDK2-independent (SKOV3, COV504, COV644) versus CDK2-dependent (COV318, OVCAR3, HCC1569) cell lines (assay: Cell proliferation selectivity assay (CyQUANT Direct Cell Proliferation Assay)). Details: mean of IC50 ratios between each CDK2-independent versus CDK2-dependent cell line; 120 hours incubation.
Assay type: cell-based
Method: Compounds described herein were also tested in cell proliferation selectivity assays. OVCAR3, HCC1569, and SKOV3 cell lines were obtained from ATCC and cultured as recommended by supplier. COV318, COV504, and COV644 cell lines were obtained from Sigma-Aldrich and were cultured as recommended by supplier. The genetic background and dependency of each cell line was determined using publicly available databases: cBioPortal and DepMap. […] All six cell lines are CDK1-dependent given that CDK1 is an essential gene. Proliferation assay was carried out by seeding cells into 384-well plates at predetermined density (ranging from 150 to 1500 cells per well) in corresponding culture media, followed by brief centrifugation at 1000×g, and culturing cells for 24 hours at 37° C., 5% CO2. The following day, compounds were serially diluted (1l-point, 3-fold dilution scheme with 20 μM as top concentration) and dispensed directly onto cells using Echo 555 acoustic liquid handler (Labcyte). The cells were incubated with the compounds at 37° C., 5% CO2 for 120 hours. Relative number of viable cells in each well was determined using CyQUANT Direct Cell Proliferation Assay Kit (Invitrogen) per manufacturers protocol. The plates were read on EnVision 2105 multimode plate reader (Perkin Elmer) using FITC filter set. Dose response curve fitting and IC50 calculation was done using Genedata Screener software. Proliferation selectivity (i.e. selectivity index) for individual compound was derived as a mean of its IC50 ratios between each CDK2-independent versus CDK2-dependent cell line.

SMILES | Proliferation selectivity Index
CC(C)NC(=O)O[C@@H]1CC[C@H](c2cc(Nc3ncnc4ncccc34)n[nH]2)C1 (single isomer, unassigned) [Example I-4] | 45.05
COCc1cc2c(Nc3cc([C@H]4CC[C@@H](OC(=O)NC(C)C)C4)[nH]n3)nccn2n1 (single isomer, unassigned) [Example I-10] | 24.36
CC(C)NC(=O)O[C@@H]1CC[C@H](c2cc(Nc3nccc4nccn34)n[nH]2)C1 (single isomer, unassigned) [Example I-11] | 24.26
CC(C)NC(=O)O[C@@H]1CC[C@H](c2cc(Nc3nccn4nccc34)n[nH]2)C1 (single isomer, unassigned) [Example I-17] | 21.85
COCc1nc2ccnc(Nc3cc([C@@H]4CC[C@H](OC(=O)NC(C)C)C4)[nH]n3)c2s1 (single isomer, unassigned) [Example I-19] | 20.52
CC(C)NC(=O)O[C@H]1CC[C@@H](c2cc(Nc3ncnc4ncccc34)n[nH]2)C1 (single isomer, unassigned) [Example I-20] | 20.15
Cc1cc(CC(=O)Nc2cc([C@@H]3CC[C@H](Oc4nscc4C4CC4)C3)[nH]n2)on1 (single isomer, unassigned) [Example I-21] | 19.98
CC(C)NC(=O)O[C@@H]1CC[C@H](c2cc(Nc3ncnc4ncsc34)n[nH]2)C1 (single isomer, unassigned) [Example I-24] | 19.46
CC(C)NC(=O)O[C@H]1CC[C@@H](c2cc(Nc3nccc4ncsc34)n[nH]2)C1 (single isomer, unassigned) [Example I-28] | 18.45
COCc1cc2c(Nc3cc([C@H]4C[C@@H](OC(=O)N[C@@H](C)CC(F)(F)F)CO4)[nH]n3)nccn2n1 (single isomer, unassigned) [Example I-33] | 17.57
COCc1cc2c(Nc3cc([C@H]4C[C@@H](OC(=O)N[C@]5(C)CC5(F)F)CO4)[nH]n3)nccn2n1 (single isomer, unassigned) [Example I-34] | 17.33
CC[C@H](C)NC(=O)O[C@H]1CO[C@@H](c2cc(Nc3ccc4c(n3)C(C)(C)NC4=O)n[nH]2)C1 [Example I-1] | 54.25
COCc1cc2c(Nc3cc([C@H]4C[C@@H](OC(=O)N5CCC5(C)C)CO4)[nH]n3)nccn2n1 [Example I-2] | 51.61
C[C@H](NC(=O)O[C@H]1CO[C@@H](c2cc(Nc3ccc4c(n3)C(C)(C)NC4=O)n[nH]2)C1)C1CC1 [Example I-3] | 45.44
CC1(NC(=O)O[C@H]2CO[C@@H](c3cc(Nc4ccn5nccc5n4)n[nH]3)C2)CC1 [Example I-5] | 32.74
C=C(C)c1ccncc1O[C@H]1CC[C@@H](c2cc(NC(=O)Cc3cc(C)no3)n[nH]2)C1 [Example I-6] | 31.48
CC1(NC(=O)O[C@@H]2CO[C@H](c3cc(Nc4nccc5nccn45)n[nH]3)C2)CC1 [Example I-7] | 27.71
CC1(NC(=O)O[C@H]2CO[C@@H](c3cc(Nc4ccc5nccn5n4)n[nH]3)C2)CC1 [Example I-8] | 27.56
COCc1cc2c(Nc3cc([C@H]4C[C@@H](OC(=O)N[C@@H](C)C(F)(F)F)CO4)[nH]n3)nccn2n1 [Example I-9] | 24.63
COCC1(NC(=O)O[C@@H]2CO[C@H](c3cc(NC(=O)c4cc(COC(F)(F)F)nn4C)n[nH]3)C2)CC1 [Example I-12] | 23.98
C[C@H](NC(=O)O[C@@H]1CO[C@H](c2cc(NC(=O)c3cc(COC(F)(F)F)nn3C)n[nH]2)C1)C1CC1 [Example I-13] | 23.74

SMILES | Proliferation selectivity Index
Cn1ncc2cnc(Nc3cc([C@H]4C[C@@H](OC(=O)NC5(C)CC5)CO4)[nH]n3)cc21 [Example I-14] | 23.53
COCc1cc2c(Nc3cc([C@H]4C[C@@H](OC(=O)NC5(CC(F)(F)F)CC5)CO4)[nH]n3)nccn2n1 [Example I-15] | 23.43
COCc1nc2ccnc(Nc3cc([C@H]4C[C@@H](OC(=O)NC(C)C)CO4)[nH]n3)c2s1 [Example I-16] | 22.96
Cn1nc(COC(F)(F)F)cc1C(=O)Nc1cc([C@@H]2C[C@H](OC(=O)NC3(C)CC3)CO2)[nH]n1 [Example I-18] | 21.63
CC(C)NC(=O)OC[C@H]1C[C@@H](c2cc(Nc3nccc4ncsc34)n[nH]2)C1 [Example I-22] | 19.69
COCc1cc2c(Nc3cc([C@H]4C[C@@H](OC(=O)N[C@H](C)C(F)(F)F)CO4)[nH]n3)nccn2n1 [Example I-23] | 19.67
Cn1nc(COC(F)(F)F)cc1C(=O)Nc1cc([C@@H]2C[C@H](OC(=O)NC3(C)COC3)CO2)[nH]n1 [Example I-25] | 18.78
COCc1cc2c(Nc3cc([C@@H]4C[C@H](Oc5nncn5C(C)(C)C)CO4)[nH]n3)nccn2n1 [Example I-26] | 18.65
CC(C)NC(=O)OC[C@H]1C[C@@H](c2cc(NC(=O)c3cc(COC(F)(F)F)nn3C)n[nH]2)C1 [Example I-27] | 18.56
COCc1cc2c(Nc3cc([C@H]4C[C@@H](OC(=O)NC(C)(C)C#N)CO4)[nH]n3)nccn2n1 [Example I-29] | 18.45
Cn1nc(OCC(F)F)cc1C(=O)Nc1cc([C@H]2C[C@@H](OC(=O)NC34CC(C3)C4)CO2)[nH]n1 [Example I-30] | 18.27
CC1(NC(=O)O[C@H]2CO[C@@H](c3cc(Nc4nccc5nccn45)n[nH]3)C2)CC1 [Example I-31] | 17.88
CC(C)NC(=O)O[C@@H]1CO[C@H](c2cc(Nc3nccc4ncsc34)n[nH]2)C1 [Example I-32] | 17.60
CCC1(NC(=O)O[C@H]2CO[C@@H](c3cc(Nc4nccn5nc(COC)cc45)n[nH]3)C2)CC1 [Example I-35] | 17.20
C#CC1(NC(=O)O[C@H]2CO[C@@H](c3cc(Nc4nccn5nc(COC)cc45)n[nH]3)C2)CC1 [Example I-36] | 16.79
COCc1cc2c(Nc3cc([C@H]4C[C@@H](Oc5nncn5C5(C(F)(F)F)CC5)CO4)[nH]n3)nccn2n1 [Example I-37] | 16.55
COCc1cc2c(Nc3cc([C@H]4C[C@@H](OC(=O)NC(C)C)CO4)[nH]n3)nccn2n1 [Example I-38] | 16.55
CC(C)n1cnnc1OC[C@H]1C[C@@H](c2cc(Nc3nccn4nccc34)n[nH]2)C1 [Example I-39] | 16.17
COCc1cc2c(Nc3cc([C@@H]4C[C@H](Oc5nncn5C5(C)CC5)CO4)[nH]n3)nccn2n1 [Example I-40] | 16.06
CC(C)NC(=O)O[C@H]1CO[C@@H](c2cc(Nc3nccc4ncsc34)n[nH]2)C1 [Example I-41] | 15.98
COCc1cc2c(Nc3cc([C@H]4C[C@@H](OC(=O)NC(C)(C)C(F)(F)F)CO4)[nH]n3)nccn2n1 [Example I-42] | 15.77

The compounds below were run against T1, CDK2/Cyclin E complex (Homo sapiens, UniProt P24941) (assay: CDK2/Cyclin E fluorescence-based microfluidic mobility shift assay (CDK2 Biochemical Caliper Assay)). Details: read-out: Biochemical CDK2/CyclinE Caliper IC50.
T1 construct: purchased Eurofins 14-475
Procedure, shortened: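 Wild-type CDK2/Cyclin E was preincubated with compound and ATP for 30 min at RT before the 5-FAM-QSPKKG peptide was added. Final concentrations were 0.1 nM enzyme, 2000 uM ATP, 1.5 uM peptide and 1% DMSO. After 20 hr at RT and EDTA stop, substrate conversion was read by microfluidic mobility shift over an 11-point, 3-fold dilution series.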

SMILES | IC50 [nM]
Cc1cc(CC(=O)Nc2cc([C@H]3CC[C@@H](OC(N)=O)C3)[nH]n2)on1 (racemic) [Example 4] | 250 to 1000
